Assay results from US20130184257A1, “PIPERIDINYL-SUBSTITUTED LACTAMS AS GPR119 MODULATORS” (priority 2010, published 2013).

Tested on: modified version of the GPR119 receptor (94% identity to human receptor) stably expressed in HEK-293 cells
Test: cAMP Production Assay (LANCE cAMP kit, TR-FRET)
Format: cell-based
Conditions: for cAMP production in HEK-293 cells: HEK-293 cells expressing modified GPR119, test compounds 0.2 nM to 10 μM, one-hour incubation at ambient temperature; for Fold over baseline: increase in cAMP relative to basal levels, 1.5-fold or greater = agonist activity
Description: The assay utilized HEK-293 cells that stably express a modified version of the GPR119 receptor (94% identity to human receptor), under the control of a CMV promoter containing a tet-on element for tetracycline-inducible expression. GPR119 agonist-induced cyclic AMP (cAMP) production was measured in this cell line using the LANCE cAMP kit (Perkin Elmer, Waltham, Mass.). To generate a working stock of cells for the assay, cells were treated overnight with 1 μg/mL doxycycline at 37° C. in the presence of 5% CO2 to induce receptor expression. Cells were then harvested by enzymatic dissociation with 0.05% trypsin, resuspended in freezing medium (DMEM growth medium with 10% each of fetal bovine serum and DMSO), aliquoted and frozen at −80° C. On the day of the assay, frozen cells were thawed, washed 1× in PBS and resuspended in Hank's buffered salt solution (HBSS) containing 5 mM HEPES, 0.1% BSA and Alexa Fluor 647-conjugated anti-cAMP antibody (diluted 1:100). The cell suspension was then transferred to a Proxiplate Plus white 384-well assay plate (Perkin-Elmer) at 2000 cells/well. Test compounds at final concentrations ranging from 0.2 nM to 10 μM were added to the assay plate, followed by a one-hour incubation at ambient temperature (volume=10 μL/well). DMSO concentration was held constant at 0.5%. After incubation with test compounds, 10 μL of a detergent buffer containing a biotinylated cAMP/Europium-conjugated streptavidin complex (Europium-labeled cAMP tracer) were added to each well on the assay plate, followed by a 2-hour incubation at ambient temperature. During this incubation cAMP released from lysed cells competes with the Europium-labeled cAMP tracer for binding to the Alexa Fluor 647-conjugated antibody. […] Cellular cAMP levels were then determined by interpolation of raw signal data using a cAMP standard curve. Compounds were determined to have agonist activity if they stimulated a 1.5-fold or greater increase in cAMP relative to basal levels.

| Structure (SMILES) | cAMP production in HEK-293 cells [nmol] | Fold over baseline |
| --- | --- | --- |
| CC[C@H](C)c1nc(N2CCC(N3CC[C@H](Nc4ccc(S(C)(=O)=O)cc4F)C3=O)CC2)no1 [Example 41, (S)-1-(1-(5-sec-butyl-1,2,4-oxadiazol-3-yl)piperidin-4-yl)-3-(2-fluoro-4-(methylsulfonyl)phenylamino)-pyrrolidin-2-one] | 15.9 | 4.0 |
| CS(=O)(=O)c1cc(F)c(N[C@H]2CCCN(C3CCN(c4noc(C(F)(F)F)n4)CC3)C2=O)cc1F [Example 25, (S)-3-(2,5-difluoro-4-(methylsulfonyl)phenylamino)-1′-(5-(trifluoromethyl)-1,2,4-oxadiazol-3-yl)-1,4′-bipiperidin-2-one] | 49.0 | 2.9 |
| CC(C)c1noc(N2CCC(N3CCC[C@H](Nc4ccc(S(C)(=O)=O)cc4F)C3=O)CC2)n1 [Example 7, (S)-3-(2-fluoro-4-(methylsulfonyl)phenylamino)-1′-(3-isopropyl-1,2,4-oxadiazol-5-yl)-1,4′-bipiperidin-2-one] | 27.8 | 5.7 |
| CS(=O)(=O)c1ccc(N[C@H]2CCN(C3CCN(c4noc(C5CCC5)n4)CC3)C2=O)c(F)c1 [Example 40, (S)-1-(1-(5-cyclobutyl-1,2,4-oxadiazol-3-yl)piperidin-4-yl)-3-(2-fluoro-4-(methylsulfonyl)-phenylamino)pyrrolidin-2-one] | 17.5 | 5.7 |
| CS(=O)(=O)c1cc(F)c(N[C@H]2CCN(C3CCN(c4noc(C(F)F)n4)CC3)C2=O)c(F)c1 [Example 31, (S)-3-(2,6-difluoro-4-(methylsulfonyl)phenylamino)-1-(1-(5-(difluoromethyl)-1,2,4-oxadiazol-3-yl)piperidin-4-yl)pyrrolidin-2-one] | 4.9 | 2.3 |
| CC(F)(F)c1nc(N2CCC(N3CCC[C@H](Oc4cc(F)c(S(C)(=O)=O)cc4F)C3=O)CC2)no1 [Example 55, (S)-3-(2,5-difluoro-4-(methylsulfonyl)phenoxy)-1′-(5-(1,1-difluoroethyl)-1,2,4-oxadiazol-3-yl)-[1,4′-bipiperidin]-2-one] | 17.3 | 3.7 |
| CC(C)c1nc(N2CCC(N3CC[C@H](Oc4c(F)cc(S(C)(=O)=O)cc4F)C3=O)CC2)no1 [Example 20, (S)-3-(2,6-difluoro-4-(methylsulfonyl)phenoxy)-1-(1-(5-isopropyl-1,2,4-oxadiazol-3-yl)piperidin-4-yl)pyrrolidin-2-one] | 19.4 | 3.7 |
| CC(F)(F)c1noc(N2CCC(N3CCC[C@H](Nc4cc(F)c(S(C)(=O)=O)cc4F)C3=O)CC2)n1 [Example 61, (S)-3-((2,5-difluoro-4-(methylsulfonyl)phenyl)amino)-1′-(3-(1,1-difluoroethyl)-1,2,4-oxadiazol-5-yl)-[1,4′-bipiperidin]-2-one] | 13.6 | 2.2 |
| CS(=O)(=O)c1cc(F)c(N[C@H]2CCN(C3CCN(c4nc(C(F)(F)F)no4)CC3)C2=O)c(F)c1 [Example 60, (S)-3-((2,6-difluoro-4-(methylsulfonyl)phenyl)amino)-1-(1-(3-(trifluoromethyl)-1,2,4-oxadiazol-5-yl)piperidin-4-yl)pyrrolidin-2-one] | 18.1 | 3.8 |
| CS(=O)(=O)c1cc(F)c(O[C@H]2CCN(C3CCN(c4noc(C(F)(F)F)n4)CC3)C2=O)c(F)c1 [Example 28, (S)-3-(2,6-difluoro-4-(methylsulfonyl)phenoxy)-1-(1-(5-(trifluoromethyl)-1,2,4-oxadiazol-3-yl)piperidin-4-yl)pyrrolidin-2-one] | 101.5 | 5.0 |
